Reference: the supplement of paper PMC10307832

Tests used:
Test in all cases: relative viability (nuclei count vs DMSO), 5 days (fraction); higher = more cells survive
[1] = compound: CCC1=CN=CN=C1N2CCN(CC2)CC3=NC4=C(N3)C=C(C=C4)C(F)(F)F + Cc1nc(Nc2ncc(C(=O)Nc3c(C)cccc3Cl)s2)cc(N2CCN(CCO)CC2)n1 [Dasatinib] (partner 0.075 µM)
Summary of the method: (§1)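 Relative viability was taken as the ratio of nuclei in treated wells to nuclei in vehicle wells. Lung cancer cell lines in 1536-well plates received compounds by pin tool one day after seeding, either one drug alone or a fixed anchor-drug dose plus five library-drug doses (not always all listed) in √10 steps. Nuclei were counted on 4× images after 5 days of treatment, and values are medians of duplicate plates.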

[2] = compound: CCC1=CN=CN=C1N2CCN(CC2)CC3=NC4=C(N3)C=C(C=C4)C(F)(F)F + COc1cc2c(Oc3ccc(NC(=O)C4(C(=O)Nc5ccc(F)cc5)CC4)cc3F)ccnc2cc1OCCCN1CCOCC1 [Foretinib] (partner 0.25 µM)
Summary of the method: as §1

[3] = compound: CCC1=CN=CN=C1N2CCN(CC2)CC3=NC4=C(N3)C=C(C=C4)C(F)(F)F + CC1(C)CCC(c2ccc(Cl)cc2)=C(CN2CCN(c3ccc(C(=O)NS(=O)(=O)c4ccc(N[C@H](CCN5CCOCC5)CSc5ccccc5)c(S(=O)(=O)C(F)(F)F)c4)cc3)CC2)C1 [Navitoclax] (partner 0.5 µM)
Summary of the method: as §1

[4] = compound: CCn1c(-c2nonc2N)nc2cnc(Oc3cccc(NC(=O)c4ccc(OCCN5CCOCC5)cc4)c3)cc21 + C[C@@H](Oc1cc(-c2cnn(C3CCNCC3)c2)cnc1N)c1c(Cl)ccc(F)c1Cl [Crizotinib] (partner 1 µM)
Summary of the method: as §1

In the case of UMC-11, the relative viability ([1]; first compound 0.04 µM) is reported as 0.531, the relative viability ([1]; first compound 0.1265 µM) is reported as 0.436 and the relative viability ([1]; first compound 0.4 µM) is reported as 0.42. The relative viability ([1]; first compound 1.265 µM) was 0.398, the relative viability ([1]; first compound 4 µM) was 0.492 and the relative viability ([2]; first compound 0.04 µM) was 0.997. It also gave a relative viability ([2]; first compound 0.1265 µM) of 0.932, a relative viability ([2]; first compound 0.4 µM) of 1 and a relative viability ([2]; first compound 1.265 µM) of 0.898. For the same cell line, the relative viability ([2]; first compound 4 µM) was 0.96, the relative viability ([3]; first compound 0.04 µM) was 0.319 and the relative viability ([3]; first compound 0.1265 µM) was 0.304. It also gave a relative viability ([3]; first compound 0.4 µM) of 0.312, a relative viability ([3]; first compound 1.265 µM) of 0.284 and a relative viability ([3]; first compound 4 µM) of 0.305. For the same cell line, the relative viability ([4]; first compound 0.04 µM) was 0.924, the relative viability ([4]; first compound 0.1265 µM) was 0.743 and the relative viability ([4]; first compound 0.4 µM) was 0.577. The relative viability ([4]; first compound 1.265 µM) was 0.135 and the relative viability ([4]; first compound 4 µM) was 0.121.
